Data published in publication PMC12186262 (ACS Chemical Biology, 2025).
Like-named read-outs stand apart in the source and are kept apart here.

What was measured:
[1] = biological target: wild-type (WT) His-tagged SARS-CoV-2 SgP RBD (Severe acute respiratory syndrome coronavirus 2, UniProt P0DTC2); type: binding; settings: for Mean fluorescence intensity (MFI): glycans printed at 100 µM, MFI scaled to positive control = 100, WT RBD 20 µg/mL
WT RBD of SARS-CoV-2 SgP [2] = biological target: T1, WT RBD of SARS-CoV-2 SgP (Severe acute respiratory syndrome coronavirus 2, UniProt P0DTC2); settings: read-out: KD (solution fluorescence titration); pH 7.4
WT RBD of SARS-CoV-2 SgP [3] = biological target: T1, WT RBD of SARS-CoV-2 SgP; type: binding; settings: read-out: KD (microarray, sigmoidal fit)
[4] = microarray, WT RBD, library A1-A19

Structure (SMILES) | Mean fluorescence intensity (MFI) [1] | Kd (WT RBD of SARS-CoV-2 SgP [3]) [µM] | further results
CC(=O)N[C@H]1[C@@H](O[C@H]2[C@H](F)[C@@H](OS(=O)(=O)O)[C@H](OCCCN)O[C@@H]2C(=O)O)O[C@H](COS(=O)(=O)O)[C@@H](O)[C@@H]1OS(=O)(=O)O [B20] | > 30 |  | 
NCCCO[C@@H]1O[C@H](C(=O)O)[C@@H](O[C@H]2O[C@H](COS(=O)(=O)O)[C@@H](O)[C@H](OS(=O)(=O)O)[C@H]2NS(=O)(=O)O)[C@H](F)[C@H]1O [B22] | > 30 |  | 
NOCCOCCO[C@@H]1O[C@@H](COS(=O)(=O)O)[C@@H](O[C@@H]2O[C@@H](COS(=O)(=O)O)[C@@H](O[C@@H]3O[C@@H](COS(=O)(=O)O)[C@@H](O[C@@H]4O[C@@H](COS(=O)(=O)O)[C@@H](OS(=O)(=O)O)[C@H](O)[C@H]4OS(=O)(=O)O)[C@H](O)[C@H]3OS(=O)(=O)O)[C@H](O)[C@H]2OS(=O)(=O)O)[C@H](O)[C@H]1OS(=O)(=O)O [B34] |  | 0.201 ± 0.064 | Kd (WT RBD of SARS-CoV-2 SgP [2]): 0.061 ± 0.008 µM
NCCCO[C@@H]1O[C@H](C(=O)O)[C@@H](O[C@H]2O[C@H](COS(=O)(=O)O)[C@@H](O)[C@H](OS(=O)(=O)O)[C@H]2NS(=O)(=O)O)[C@H](F)[C@H]1OS(=O)(=O)O [B23] | > 30 |  | 
NCCCO[C@@H]1O[C@@H](C(=O)O)[C@@H](O[C@H]2O[C@H](CO)[C@@H](O[C@@H]3O[C@@H](C(=O)O)[C@@H](O[C@H]4O[C@H](CO)[C@@H](O)[C@H](OS(=O)(=O)O)[C@H]4N)[C@H](O)[C@H]3OS(=O)(=O)O)[C@H](OS(=O)(=O)O)[C@H]2N)[C@H](O)[C@H]1OS(=O)(=O)O [A13] | lower MFI in comparison to A9 |  | 
NOCCOCCO[C@@H]1O[C@@H](C(=O)O)[C@@H](OS(=O)(=O)O)[C@H](O)[C@H]1OS(=O)(=O)O [A16] |  |  | Binding signal relative to closest neighbors [1, 4]: ~3 fold
NOCCOCCO[C@@H]1O[C@@H](COS(=O)(=O)O)[C@@H](O[C@@H]2O[C@@H](COS(=O)(=O)O)[C@@H](O[C@@H]3O[C@@H](COS(=O)(=O)O)[C@@H](OS(=O)(=O)O)[C@H](O)[C@H]3OS(=O)(=O)O)[C@H](O)[C@H]2OS(=O)(=O)O)[C@H](O)[C@H]1OS(=O)(=O)O [B33] |  | 0.307 ± 0.038 | 
NCCCO[C@@H]1O[C@@H](C(=O)O)[C@@H](O[C@H]2O[C@H](CO)[C@@H](O[C@@H]3O[C@@H](C(=O)O)[C@@H](O[C@H]4O[C@H](CO)[C@@H](O)[C@H](OS(=O)(=O)O)[C@H]4N)[C@H](O)[C@H]3O)[C@H](OS(=O)(=O)O)[C@H]2N)[C@H](O)[C@H]1O [A9] |  |  | Recognition by WT RBD better than the next best molecule (A10) [1, 4]: > 250%
NOCCOCCO[C@@H]1O[C@@H](COS(=O)(=O)O)[C@@H](O[C@@H]2O[C@@H](COS(=O)(=O)O)[C@@H](OS(=O)(=O)O)[C@H](O)[C@H]2OS(=O)(=O)O)[C@H](O)[C@H]1OS(=O)(=O)O [B32] |  | 0.243 ± 0.041 | 
NOCCOCCO[C@@H]1O[C@@H](COS(=O)(=O)O)[C@@H](OS(=O)(=O)O)[C@H](O)[C@H]1OS(=O)(=O)O [B30] |  |  | MFI relative to nonsulfated monosaccharide B24 and 3-O-sulfated B28 ([1]; microarray, WT RBD): 4 fold
